According to patent US10543189B2, “2-acetylnaphtho[2,3-b]furan -4,9-dione for use on treating cancer” (Boston Biomedical, Inc., priority 2013, dated 2020):
Like-named read-outs stand apart in the source and are kept apart here.

Key:
[1] = Phase I dose escalation trial: pharmacokinetic profile; assay type: in vivo, human; details: for Tmax / AUC(0-t) / concentration at 24 h / half-life / Cmax / AUC: human, plasma, oral, patient plasma; for AUC(0-t): read-out: AUC0-24; for concentration at 24 h: read-out: C24h; for half-life: read-out: T1/2,t (converted)
Description: Pharmacokinetics profile with oral bid dosing was also studied. The plasma concentration of the drug reached several folds over the efficacious concentration (in vitro IC50) as illustrated in Table 8.
To maintain drug plasma concentration at or above the efficacious level for a desirable duration and to further increase peak plasma concentration, we studied the pharmacokinetics of a 500 mg BID regimen (at 4 hour interval between two doses on the same day or “q4h”), and compared it to that of a 500 mg QD regimen (FIG. 1). […] In another suitable dosing regimen, 500 mg of Compound 1 were administered three times a day (TID) to human subjects.

[2] = Phase 1 extension study of higher strength capsule (DP2A): pharmacokinetics; assay type: in vivo; details: human, plasma, oral, 500 mg; for AUC(0-t): read-out: AUC0-24
Excerpt: However, with the higher strength capsules, we observed worsening gastrointestinal adverse effects including nausea, vomiting, and diarrhea in patients.
Additional studies were run using an oral formulation of the Compound of the Invention, specifically a higher strength capsule formulation (DP2A). As described herein, the Compound of the Invention blocks cancer stem cell (CSC) self-renewal and induces cell death in CSC as well as non-stem cancer cells by inhibiting Stat3, β-catenin, and Nanog pathways, and has shown potent anti-tumor and anti-metastatic activities pre-clinically. […] The studies described herein were designed as a phase 1 extension study to evaluate a formulation designed for pivotal trials to determine pharmacokinetics (PK) in patients with advanced cancer.
On Day 1, patients received a single 500 mg dose of an oral administration formulation of the Compound of the Invention (DP1). On Day 4 and Day 8, a higher strength capsule designed for pivotal trials (DP2A) was given with fasting then fed conditions. DP2A was then administered daily until disease progression or unacceptable toxicity. Endpoints were safety, PK and preliminary anticancer activity.

cancer cells = test: Antitumor activity of the compound in patient urine; assay type: cell-based; details: compound in patient urine tested against cancer cells
[3] = 20 mg, Total Daily Dose 20 (mg), qd
[4] = 40 mg, Total Daily Dose 40 (mg), qd
[5] = 80 mg, Total Daily Dose 80 (mg), bid q4h
[6] = 80 mg, Total Daily Dose 80 (mg), qd
[7] = 160 mg, Total Daily Dose 160 (mg), bid q4h
[8] = 320 mg, Total Daily Dose 320 (mg), bid q4h
[9] = 400 mg, Total Daily Dose 400 (mg), bid q4h
[10] = 600 mg, Total Daily Dose 600 (mg), bid q4h
[11] = 800 mg, Total Daily Dose 800 (mg), bid q4h
[12] = 1000 mg, Total Daily Dose 1000 (mg), bid q4h
[13] = 1000 mg, Total Daily Dose 1000 (mg), bid q6h
[14] = 1400 mg, Total Daily Dose 1400 (mg), bid q4h
[15] = 1500 mg, Total Daily Dose 1500 (mg), tid q4h
[16] = 2000 mg, Total Daily Dose 2000 (mg), bid q4h
[17] = Patient 0053, single 500 mg dose - fed
[18] = Patient 0054, single 500 mg dose - fed
[19] = Patient 0061, single 500 mg dose - fed
[20] = Patient 0070, single 500 mg dose - fed

CC(=O)c1cc2c(o1)C(=O)c1ccccc1C2=O [Compound 1, 2-acetylnaphtho[2,3-b]furan-4,9-dione]
patient exposure, 500 mg three times a day (TID) versus twice daily ([1]; human subjects): not significantly improved | Tmax [1, 3]: 3 h | AUC(0-t) [1, 3]: 2.01 µM·h | concentration at 24 h [1, 3]: 0.03 µM | half-life [1, 3]: 18.5 h | Cmax [1, 4]: 0.5 µM | Tmax [1, 4]: 0.5 h | AUC(0-t) [1, 4]: 3.44 µM·h | concentration at 24 h [1, 4]: 0.03 µM | half-life [1, 4]: 4.5 h | AUC [1, 5]: 8.13 µM·h | Cmax [1, 5]: 0.9 µM | Tmax [1, 5]: 8.1 h | AUC(0-t) [1, 5]: 7.95 µM·h | concentration at 24 h [1, 5]: 0.03 µM | half-life [1, 5]: 3.6 h | Cmax [1, 6]: 2.24 µM | Tmax [1, 6]: 1.5 h | AUC(0-t) [1, 6]: 12.8 µM·h | concentration at 24 h [1, 6]: 0.07 µM | half-life [1, 6]: 5.2 h | Cmax [1, 7]: 1.33 µM | Tmax [1, 7]: 3.9 h | AUC [1, 8]: 38.3 µM·h | Cmax [1, 8]: 2.92 µM | Tmax [1, 8]: 3.8 h | AUC(0-t) [1, 8]: 33.1 µM·h | concentration at 24 h [1, 8]: 0.24 µM | half-life [1, 8]: 5.7 h | AUC [1, 9]: 48.2 µM·h | Cmax [1, 9]: 3.75 µM | Tmax [1, 9]: 7.9 h | AUC(0-t) [1, 9]: 40.2 µM·h | concentration at 24 h [1, 9]: 0.62 µM | half-life [1, 9]: 6.9 h | AUC [1, 10]: 37.1 µM·h | Cmax [1, 10]: 2.67 µM | Tmax [1, 10]: 3.2 h | AUC(0-t) [1, 10]: 27.8 µM·h | concentration at 24 h [1, 10]: 0.42 µM | half-life [1, 10]: 9 h | AUC [1, 11]: 27 µM·h | Cmax [1, 11]: 3.04 µM | Tmax [1, 11]: 4.3 h | AUC(0-t) [1, 11]: 26.1 µM·h | concentration at 24 h [1, 11]: 0.16 µM | half-life [1, 11]: 4 h | AUC [1, 12]: 50.7 µM·h | Cmax [1, 12]: 4.97 µM | Tmax [1, 12]: 6.6 h | AUC(0-t) [1, 12]: 45.1 µM·h | concentration at 24 h [1, 12]: 0.29 µM | half-life [1, 12]: 6.6 h | AUC [1, 13]: 22.9 µM·h | Cmax [1, 13]: 1.36 µM | Tmax [1, 13]: 5.7 h | AUC(0-t) [1, 13]: 15.8 µM·h | concentration at 24 h [1, 13]: 0.33 µM | half-life [1, 13]: 12.7 h | AUC [1, 14]: 45 µM·h | Cmax [1, 14]: 2.05 µM | Tmax [1, 14]: 2.9 h | AUC(0-t) [1, 14]: 28.2 µM·h | concentration at 24 h [1, 14]: 0.65 µM | half-life [1, 14]: 13.6 h | AUC [1, 15]: 59.9 µM·h | Cmax [1, 15]: 3.75 µM | Tmax [1, 15]: 7.3 h | AUC(0-t) [1, 15]: 46.4 µM·h | concentration at 24 h [1, 15]: 0.94 µM | half-life [1, 15]: 8.2 h | AUC [1, 16]: 45.8 µM·h | Cmax [1, 16]: 1.69 µM | Tmax [1, 16]: 6.3 h | AUC(0-t) [1, 16]: 25.9 µM·h | concentration at 24 h [1, 16]: 0.8 µM | half-life [1, 16]: 17.2 h | pharmacokinetics, 500 mg BID (q4h) versus 500 mg QD ([1]; patients, FIG. 1): no significant difference | Cmax [2, 17]: 6.61 µM | AUC(0-t) [2, 17]: 79.6 µM·h | Cmax [2, 18]: 6.25 µM | AUC(0-t) [2, 18]: 49.8 µM·h | Cmax [2, 19]: 1.54 µM | AUC(0-t) [2, 19]: 10.6 µM·h | Cmax [2, 20]: 2.25 µM | AUC(0-t) [2, 20]: 20.1 µM·h | antitumor activity in patient urine (cancer cells): remained potent against cancer cells
